From PubChem BioAssay (NCI)
Several values for one entry are separate records, joined by “and”; a condition that tells them apart may be missing. Equal entries are not always repeated.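 Each compound was tested at five concentrations against cells in 96-well plates for 48 hours. At the GI50, growth is halved. TGI: total growth inhibition.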

Tests used:
Assay in all cases: NCI tumour cell line growth inhibition, 48 h
CCRF-CEM leukemia = tested on: CCRF-CEM leukemia
DLD-1 colon = tested on: DLD-1 colon
DMS 114 small cell lung = tested on: DMS 114 small cell lung
DMS 273 small cell lung = tested on: DMS 273 small cell lung
HOP-18 NSCLC = tested on: HOP-18 NSCLC
KM20L2 colon = tested on: KM20L2 colon
LXFL 529 NSCLC = tested on: LXFL 529 NSCLC
M19-MEL melanoma = tested on: M19-MEL melanoma
RXF-631 renal = tested on: RXF-631 renal
SNB-78 CNS = tested on: SNB-78 CNS
UO-31 renal = tested on: UO-31 renal
XF 498 CNS = tested on: XF 498 CNS
NCI/ADR-RES ovarian = tested on: NCI/ADR-RES ovarian
P388 leukemia = tested on: P388 leukemia
P388/ADR leukemia = tested on: P388/ADR leukemia
SN12K1 renal = tested on: SN12K1 renal

| SMILES | TGI (CCRF-CEM leukemia) [µM] | TGI (DLD-1 colon) [µM] | TGI (DMS 114 small cell lung) [µM] | TGI (DMS 273 small cell lung) [µM] | TGI (HOP-18 NSCLC) [µM] | TGI (KM20L2 colon) [µM] | TGI (LXFL 529 NSCLC) [µM] | TGI (M19-MEL melanoma) [µM] | TGI (RXF-631 renal) [µM] | TGI (SNB-78 CNS) [µM] | TGI (UO-31 renal) [µM] | TGI (XF 498 CNS) [µM] | TGI (NCI/ADR-RES ovarian) [µM] | TGI (P388 leukemia) [µM] | TGI (P388/ADR leukemia) [µM] | TGI (SN12K1 renal) [µM] | GI50 (CCRF-CEM leukemia) | GI50 (UO-31 renal) [µM] |
| --- | --- | --- | --- | --- | --- | --- | --- | --- | --- | --- | --- | --- | --- | --- | --- | --- | --- | --- |
| O=Cc1ccc(CCl)cc1 | > 100 | 31.4 | 23.5 | 38.8 | 37.4 | 61.8 | 31.4 | 52.5 | 14.7 | 47.7 | 34.8 | 34.6 |  |  |  |  |  |  |
| CSc1nc2c(ncn2C2OCC(O)C(O)C2O)c(=O)n1C (stereo not drawn) | > 100 | > 100 | > 100 | > 100 | > 100 | > 100 |  | > 100 |  | > 100 | > 100 | > 100 | > 100 | > 100 | > 100 | > 100 |  |  |
| CC(=O)NC(Cc1ccsc1)C(=O)O (stereo not drawn) | > 100 | > 100 | > 100 | > 100 | > 100 | > 100 |  | > 100 |  | > 100 | > 100 | > 100 | > 100 | > 100 | > 100 | > 100 |  |  |
| CN1CCN(c2ccc3nc(-c4ccc5nc(-c6ccc(O)cc6)[nH]c5c4)[nH]c3c2)CC1 | 381 | 487 | 483 | 158 | 556 | 1160 |  | 283 |  | 638 | 938 | 116 | 786 | 439 | 725 | 552 | 12.9 µM (2×) and 15.4 µM | 10.6 |
| COC(=O)C(C/C=C(\C)c1ccc(Cl)cc1)C(C)=O (stereo not drawn) | > 100 | > 100 | > 73.8 | > 72 | > 100 | > 100 |  | > 92.5 |  | > 100 | 85.4 | > 100 | 63.1 | 46 | > 76.5 | > 61.7 |  |  |
| C=C[C@]1(C)CCC2=C(CCC3C2(C)CCC[C@@]3(C)COC(C)=O)C1 (stereo partly drawn) | 35.4 | 34.7 | 37.4 |  | 70.1 | 33.5 | 32.5 | 50.8 | 38.1 | 36.4 | 33.4 | 34.4 |  |  |  |  |  |  |
| CC(=O)OC1COC(N2C(=O)C(=O)c3cc(Br)ccc32)C(OC(C)=O)C1OC(C)=O (stereo not drawn) | > 100 | > 100 | > 100 | > 100 | > 100 | > 100 | > 100 | > 100 | > 100 | > 100 | > 100 | > 100 |  |  |  |  |  |  |
| COC1(O)c2cccc(Cl)c2C(=O)N1C1(C(N)=O)CCCCC1 (stereo not drawn) | > 100 | > 100 | > 100 | > 100 | > 100 | > 100 |  | > 100 |  | > 100 | > 100 | > 100 | > 100 | > 100 | > 100 | > 100 |  |  |
| Ic1cc2c(cc1C1SCCCS1)OCO2 | > 100 | > 100 | > 100 | > 100 | > 100 | > 100 | > 100 | > 100 | > 100 | > 100 | > 100 |  |  |  |  |  |  |  |
